Test results: patent US12214036B2, “Combination therapy comprising AXL/MER and PD-1/PD-L1 inhibitors” (Incyte Corporation, priority 2020, dated 2025)

What was measured:
TYRO3 = target: T1, TYRO3 (Homo sapiens, UniProt Q06418); experiment: TR-FRET kinase assay, TYRO3; format: biochemical
T1 construct: recombinant phosphorylated forms of the kinase domains for AXL, MER and TYRO3; purchased Life Technologies PR7480A
T1 sequence (Q06418 518-790 limits assumed): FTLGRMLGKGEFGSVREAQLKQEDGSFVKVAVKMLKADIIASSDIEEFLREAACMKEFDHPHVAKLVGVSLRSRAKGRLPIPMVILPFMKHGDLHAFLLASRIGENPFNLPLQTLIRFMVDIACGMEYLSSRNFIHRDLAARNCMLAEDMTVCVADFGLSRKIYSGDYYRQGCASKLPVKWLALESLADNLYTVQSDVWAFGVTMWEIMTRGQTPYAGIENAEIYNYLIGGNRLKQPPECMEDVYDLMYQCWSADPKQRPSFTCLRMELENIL
Protocol: The biochemical potency of Compound 1 to inhibit the enzymatic activity of TAM family members was investigated by TR-FRET assays using recombinant phosphorylated forms of the kinase domains for AXL, MER and TYRO3.
Phospho-AXL (pAXL), cMER and Tyro3 kinase activities were measured by time-resolved fluorescence energy transfer (TR-FRET) assays. Autophosphorylation of AXL was carried out before the kinase assay by incubating the recombinant AXL protein (ThermoFisher Scientific; #PV4275) in buffer containing 50 mM Tris, pH 7.5, 0.2 mg/mL AXL, 5 mM ATP, 20 mM MgCl2 and 2 mM dithiothreitol (DTT) at room temperature for 1 hour. The kinase assay buffer contained 50 mM HEPES, pH 7.5, 10 mM MgCl2, 1 mM EGTA, 0.01% NP-40 and 2 mM DTT. Enzyme solutions of 0.69 nM phospho-AXL, or 0.088 nM cMER (Carna Biosciences, Kobe, Japan; #08-108) or 0.137 nM TYRO3 (Life Technologies, PR7480A) were prepared in assay buffer. […] The plate was incubated for 30 minutes at room temperature, and homogenous time resolved fluorescence (HTRF) signal was measured on a PheraStar FS plate reader (BMG Labtech, Ortenberg, Germany). Percent inhibition was calculated for each concentration, and half maximal inhibitory concentration (IC50) value was generated from curve fitting with GraphPad Prism software (San Diego, Calif.).

[1] = test system: BAF3 cells expressing MER; experiment: BAF3-MER cell proliferation assay (CellTiter-Glo); format: cell-based; details: Mus musculus, 48 hours, 2% FBS
Source text: To evaluate the cellular potency and selectivity within the TAM receptor family, mouse BAF3 cell lines with stable expression of AXL, MER, or TYRO3 were generated.
The cytoplasmic domain of AXL, MER, or TYRO3 fused with dimerization sequence and HA tag was cloned into a pMSCV (murine stem cell virus) vector with a puromycin-resistance marker to generate three constructs individually by electroporation into BAF3 cells. Single clones that were IL-3-independent and puromycin-resistant were selected and characterized. To evaluate effects on BAF3 cell proliferation, 1000 cells/well of BAF3, BAF3-AXL, BAF3 MER, or BAF3-TYRO3 cells were treated in the presence or absence of Compound 1 at various concentrations (10 concentration points with a three-fold dilution factor from the highest concentration of 10 μM) diluted in RPMI-1640 with 2% FBS for 48 hours in a 384-well plate. Cell viability was measured by ATP assay (CellTiter-Glo Assay, Promega, Madison, Wis.) according to the manufacturer's procedure. The data were converted to percent inhibition relative to DMSO control, and IC50 curves were fitted using GraphPad Prism software.

[2] = test system: macrophage-mediated suppression of T-cell proliferation; experiment: Macrophage suppression of T-cell proliferation assay; format: cell-based, human
Protocol: To examine the functional activity of Compound 1, the effects on macrophage-mediated suppression of T-cell proliferation were evaluated.
Human PBMCs were isolated from the peripheral blood of healthy donors by density gradient centrifugation on Ficoll-Hypaque (GE Healthcare, Chicago, Ill.; #17-1440-02) followed by purification with anti-CD14 Microbeads (Miltenyi Biotec; #130-050-201). Isolated CD14^+ monocytes/macrophages were incubated with 100 ng/mL M-CSF (R&D Systems; #216-MC) and 50 ng/mL TGFβ1 (R&D Systems; #240-B) at 37° C. for 6 days; 100 μL/well of CD14^+ macrophages were seeded at 0.5×10^6 cells/mL in a 96-well round-bottomed culture plate (Costar; #3799) and treated with Compound 1 overnight at 37° C. CD4^+CD25^− effector T (Teff) cells were isolated using the Dynabeads regulatory CD4^+CD25^+ T-cell kit (Life Technologies; #11363D) and the Teff cells were labeled with carboxyfluorescein succinimidyl ester (CFSE) using the CellTrace CFSE Cell Proliferation kit (ThermoFisher Scientific; #C34554). […] Teff cells were analyzed by a flow cytometer (BD LSRFortessa X-20, BD Biosciences, San Jose, Calif.) and the cell-free supernatant was tested in the Luminex assay (Millipore; #HCYTOMAG-60K_38plex) to measure the concentrations of different cytokines and chemokines.

In the case of `CC(C)C(=O)N1CCC(c2cc(-c3ccc(NC(=O)c4cn(C(C)C)c(=O)n(-c5ccccn5)c4=O)cc3)c3c(N)ncnn23)CC1` [Compound 1, N-(4-(4-Amino-7-(1-isobutyrylpiperidin-4-yl)pyrrolo[1,2-f][1,2,4]triazin-5-yl)phenyl)-1-isopropyl-2,4-dioxo-3-(pyridin-2-yl)-1,2,3,4-tetrahydropyrimidine-5-carboxamide], the IC50 (TYRO3; average from multiple lots, n=25, read-out: IC50 against TYRO3) is reported as 101 ± 27 nM, the “selectivity over TYRO3” value (TYRO3; biochemical) is reported as “approximately 30 fold” and the GI50 [1] is reported as 14 ± 4.9 nM. For the same molecule, the “effect on macrophage-mediated suppression of T-cell proliferation” value ([2]; FIG. 5A) was “partially reversed macrophage-mediated suppression of T-cell proliferation” and the IFN-γ production ([2]; macrophage/T-cell co-culture supernatant, FIG. 5B) was “increase in IFN-γ production”.
